# From article PMC11923649, “Novel C-2 Aromatic Heterocycle-Substituted Triterpenoids Inhibit Hedgehog Signaling in GLI1 Overexpression Cancer Cells” (ACS Omega, 2025)
# Legend:
# [1] = tested on: CEM-DNR; assay: MTS cytotoxicity assay, 72 h, CEM-DNR; format: cell-based; settings: Homo sapiens
# [2] = tested on: HCT 116; assay: MTS cytotoxicity assay, 72 h, HCT 116; format: cell-based; settings: Homo sapiens, HCT-116, 72 h
# In short: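 Treatment ran 72 h at 37 °C under 5% CO2, starting the day after plating, across 50–0.0975 μmol/L (dilution factor 2). Metabolic conversion of MTS was read at 490 nm to obtain IC50.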
# [3] = tested on: U2OS; assay: MTS cytotoxicity assay, 72 h, U2OS; format: cell-based; settings: Homo sapiens
# [4] = tested on: U-87 MG-Gli-FLuc cells; assay: MTS viability assay run in parallel with U-87 MG-Gli-FLuc reporter assay; format: cell-based, human; settings: up to a dose of 6.25 μmol/L, 24 h
# Procedure: A possible direct inhibition of the reporter (Fluc) and luminescence itself, which could lead to false positive results, was also ruled out in a cellular as well as a noncellular model (data not shown).
# Figure 1 Effect of compounds 11a, 11b, and positive control GANT-61 on Gli1 activation and cell viability measured using the U-87 MG-Gli-FLuc reporter assay. Data are expressed as percentages of control (100%) and represent the mean of three independent experiments with the standard deviation. To distinguish specific inhibition of Gli activation from a nonspecific cellular response, an MTS assay was performed simultaneously under the same conditions in 96-well transparent plates. Statistical analysis of Gli1 activity was performed using one-sample Student’s t-test (mu = 100): *, p < 0.05; **, p < 0.01. The same analysis was used to assess cytotoxicity by MTS assay: #, p < 0.05; ##, p < 0.01.
# The U-87 MG-Gli-FLuc reporter cell line was developed from the human glioblastoma line U-87 MG obtained from ATCC and cultured in EMEM medium supplemented with 10% FBS, 1 mmol/L sodium pyruvate, and a 1 mmol/L nonessential amino acid mixture. […] Panels were placed on a shaker to achieve complete cell lysis, and luminescence was measured after 3 min using an EnVision plate reader.
# [5] = tested on: K562-TAX; assay: MTS cytotoxicity assay, 72 h, K562-TAX; format: cell-based
Compound,IC50 ([1]; Table 1),IC50 ([1]; full Table S1),IC50 ([2]; Table 1),IC50 ([2]; full Table S1),IC50 ([3]; Table 1),IC50 ([3]; full Table S1),Inhibition of proliferation or cell death induction (MTS) under reporter conditions [4],IC50 ([5]; Table 1),IC50 ([5]; full Table S1)
"C=C(C)[C@@H]1CC[C@]2(C(=O)O)CC[C@]3(C)C(CCC4[C@@]5(C)C=C(c6ccoc6)C(=O)C(C)(C)C5CC[C@]43C)C12 (stereo partly drawn) [Compound 11b, 2-(Furan-3-yl)-3-oxolupa-1,20(29)-dien-28-oic acid]",22 µM,21.8 µM,20 µM,19.9 µM,26 µM,26.3 µM,not accompanied by inhibition of proliferation or cell death induction,16 µM,15.8 µM
"C=C(C)[C@@H]1CC[C@]2(C(=O)O)CC[C@]3(C)C(CCC4[C@@]5(C)C=C(c6ccco6)C(=O)C(C)(C)C5CC[C@]43C)C12 (stereo partly drawn) [Compound 11a, 2-(Furan-2-yl)-3-oxolupa-1,20(29)-dien-28-oic acid]",15 µM,15.3 µM,11 µM,11.4 µM,21 µM,20.9 µM,not accompanied by inhibition of proliferation or cell death induction,14 µM,13.7 µM
